From patent publication US5607691A, “Compositions and methods for enhanced drug delivery” (priority 1995, dated 1997) come the findings set out here.

A short description of this data set: in vitro. It is filed as in vitro ADME, human. An excerpt: Table 4 lists the serum half-lives for several model compounds and two representative pharmaceutical agent-chemical modifier complexes using an in vitro assay system described in the Experimental section below. Of course, the serum half-lives will vary in vivo depending upon the age and health condition of the patient. Each complex comprises a model compound or a pharmaceutical agent, a spacer group, and a chemical modifier. Many of the model compounds utilize 4-nitrophenyl(ethanol, propanol, or cyclohexanol) or 4-nitrophenylethylamine as the "model" pharmaceutical agent. A more complete listing of serum half-lives may be found in the Experimental section below.
General procedure for serum hydrolysis of pharmaceutical agent-modifier complexes
Stock solutions (6 mM) of the pharmaceutical agent-modifier complexes were prepared in ethanol (by vortexing, sonication or warming at 37° C. if necessary). If required for solubility, a drop of dimethylsulfoxide, dimethylformamide or methanol may be added. (Acetonitrile cannot be used because it deactivates the serum enzymes.)
HPLC separation methods were established for each study by dilution of the above stock solution (6 μl) in acetonitrile (1 ml) to give a 36 μM solution. Samples (10 μl) were injected onto a Nucleosil 5C8 (250×4 mmID) and guard column (11×4 mm ID) and eluted with a mobile phase of approximately 65% HPLC grade water and 35% of a solution of 0.1% trifluoroacetic acid in acetonitrile, the exact proportions being adjusted in each case to give optimum separation and run times.
Freshly defrosted human serum (3 ml, Sigma) was warmed at 37° C. for five minutes and then 60 μl of the agent-modifier complex stock solution was added with vortexing. […] The aliquots were added to 800 μl of 2% zinc sulfate solution in a 1.5 ml disposable microcentrifuge tube, vortexed immediately and centrifuged at 14,000 RPM for 3 minutes. The supernatants (10 μl) were then injected onto the HPLC and peak areas were used to determine the % remaining. Serum blanks were prepared similarly by addition of serum to the zinc sulfate solution followed by centrifugation, and time=0 samples were also prepared by adding serum to the zinc sulfate solution followed by addition of the complex and separation by centrifugation. The time=0 samples, as well as the original stock solutions, were also used to study the stability of the complex in the absence of enzyme. Half-lives were calculated using the equation
by plotting time (x) vs. ln % remaining (y) to obtain the slope (m) and the y intercept (b).

[1] abbreviates: human, serum, Table 5, human serum, 37° C., read-out: Serum Half-life (converted).
The mark [2] stands for this setting: human, serum, Table 4, human serum, 37° C., read-out: In vitro Half-Life (converted).
[3] abbreviates: human, serum, Table 4, read-out: serum half-life (converted).

Counter-ions that a name gives are not always drawn. Like-named read-outs stand apart in the source and are kept apart here.

Consider `C[C@H]1O[C@@H](O[C@H]2[C@@H](O)C[C@H](O[C@H]3[C@@H](O)C[C@H](O[C@H]4CC[C@@]5(C)[C@H](CC[C@@H]6[C@@H]5C[C@@H](OC(=O)OCOC(=O)CCCCC[N+](C)(C)C)[C@]5(C)[C@@H](C7=CC(=O)OC7)CC[C@]65O)C4)O[C@@H]3C)O[C@@H]2C)C[C@@H]2OC(=O)O[C@@H]21` [digoxin 12-(6-trimethylaminohexanoyloxymethyl carbonate)-3"',4"'-cyclic carbonate, bromide salt], for which the half-life under setting [1] is 168 min and the half-life (human, serum, untitled table of digoxin derivatives (position/substituent), assay not given, read-out: Half Life (converted)) was 168 min. Consider `CC(=O)OC1CC(C(=O)OCCc2ccc([N+](=O)[O-])cc2)[N+](C)(C)C1` (stereo not shown) [betonicine-O-acetate 4-nitrophenethyl ester], for which, under setting [1], the half-life is 6 min. Still for that read-out and setting: the figure for `C[C@H]1O[C@@H](O[C@H]2[C@@H](O)C[C@H](O[C@H]3[C@@H](O)C[C@H](O[C@H]4CC[C@@]5(C)[C@H](CC[C@@H]6[C@@H]5C[C@@H](OC(=O)OCCCCCCOC(=O)C[N+](C)(C)C)[C@]5(C)[C@@H](C7=CC(=O)OC7)CC[C@]65O)C4)O[C@@H]3C)O[C@@H]2C)C[C@@H]2OC(=O)O[C@@H]21` [digoxin-12-[1-(6-betainoyloxyhexyl)]carbonate-3"',4"'-cyclic carbonate, chloride salt] is 28200 min. In the case of `CCCC(=O)OCn1c(=O)c(F)cn(C(C)OC(=O)CCC[N+](C)(C)C)c1=O.[I-]` (stereo not shown) [5-fluorouracil-1-(4-trimethylammoniobutyroyl-1-oxyethyl)-3-(butyroyloxymethyl), iodide salt], the “Serum Half-life” value (Table 5, human serum, 37° C.) came to 9.7 min.

Take `CC1OC(OC2CCC3(C)C(CCC4C3CC(OC(=O)OCC[N+](C)(C)C)C3(C)C(C5=CC(=O)OC5)CCC43O)C2)CC(O)C1OC1CC(O)C(OC2CC3OC(=O)OC3C(C)O2)C(C)O1` (stereo not shown) [digoxin-12-(choline carbonate)-3'",4'"-cyclic carbonate, bromide salt]: the half-life under setting [1] was 1740 min.

`COc1cc(N)c(Cl)cc1C(=O)N[C@H]1CC[N+](CCCOc2ccc(F)cc2)(COC(C)=O)C[C@H]1OC` (relative stereo) [cisapride-N-acetoxymethylammonio, iodide salt]: the half-life under setting [1] is 6.5 min. Same read-out and setting: the figure for `CCCC(=O)OC[N+]1(CCCOc2ccc(F)cc2)CC[C@H](NC(=O)c2cc(Cl)c(N)cc2OC)[C@H](OC)C1` (relative stereo) [cisapride-N-butyroyloxymethylammonio, iodide salt] is 7.6 min. “digoxin-12-{N-[6-(N',N',N'-trimethylamino)hexanoyloxymethyl]glycinoyloxymethyl} carbonate-3"',4"'-cyclic carbonate, bromide salt”: the “Serum Half-life” value (Table 5, human serum, 37° C.) turned out to be 7 min. For `CN(C)CC(=O)OCn1cnc2c1c(=O)n(C)c(=O)n2C` [theophylline-7-(N,N-dimethylglycyloxymethyl], the half-life under setting [1] is 1680 min.

Regarding `O=C(OCCc1ccc([N+](=O)[O-])cc1)c1ccc(N2CCOCC2)cc1` [2-(4-nitrophenyl)ethanol 4-morpholino benzoate], the “In vitro Half-Life” value (human, serum) was 0.762 min.

Take `C[C@H]1O[C@@H](O[C@H]2[C@@H](O)C[C@H](O[C@H]3[C@@H](O)C[C@H](O[C@H]4CC[C@@]5(C)[C@H](CC[C@@H]6[C@@H]5C[C@@H](OC(=O)OC[N+](C)(C)CCCCCC(=O)O)[C@]5(C)[C@@H](C7=CC(=O)OC7)CC[C@]65O)C4)O[C@@H]3C)O[C@@H]2C)C[C@@H]2OC(=O)O[C@@H]21` [digoxin-12-[N-(5-carboxypentyl)-N,N-dimethylaminomethyl carbonate]-3"',4"'-cyclic carbonate, bromide salt]: the half-life under setting [1] was 48 min. `CC(=O)O[C@H](CC(=O)NCCCCCC(=O)OC(C)Cc1ccc([N+](=O)[O-])cc1)C[N+](C)(C)C` (stereo partly drawn) [1-(4-nitrophenyl)-2-propanol 6-(O-acetyl-L-carnitinamido)hexanoate ester]: the half-life is, setting by setting: under setting [2], 21.4 min; under setting [3], 21.4 min; under setting [1], 21.4 min. Turning to `C#CC[N+](C)(COC(=O)c1ccccc1)C(C)Cc1ccccc1` (stereo not shown) [deprenyl-N-benzoyloxymethyl, iodide salt], the half-life under setting [1] was 5 min. Take `CC(=O)O[C@H](CC(=O)O[C@H]1CC[C@H]2[C@@H]3CCC4=CC(=O)CC[C@]4(C)[C@H]3CC[C@]12C)C[N+](C)(C)C` [testosterone-17-(O-acetyl-L-carnitinate), chloride salt]: the half-life under setting [1] was 5760 min. On to `CC(=O)O[C@H](CC(=O)OCCCCCCOC(=O)O[C@H]1CC[C@H]2[C@@H]3CCc4cc(O)ccc4[C@H]3CC[C@]12C)C[N+](C)(C)C` [3-hydroxy-estra-1,3,5-trien-17β-yl 6-(O-acetyl-L-carnitinato)hexyl carbonate, chloride salt], for which the half-life under setting [2] is 240 min. Consider `CCOC(=O)Cc1c(C)n(C(=O)c2ccc(Cl)cc2)c2ccc(OC)cc12` [indomethacin ethyl ester, reference compound], for which the half-life under setting [1] is above 5760 min. Still for that read-out and setting: with `CCCC(=O)OCn1c(=O)c(F)cn(COC(=O)CCC[N+](C)(C)C)c1=O` [5-fluorouracil-1-(4-trimethylammoniobutyroyloxymethyl)-3-(butyroyloxymethyl), iodide salt] the figure was 204 min.

Regarding `CCn1cc(C(=O)OCOC(=O)OCC[N+](C)(C)C)c(=O)c2ccc(C)nc21` [nalidixic acid, cholinecarbonato methyl ester, iodide salt], the half-life under setting [1] was 1.27 min. As to `CC1OC(OC2CCC3(C)C(CCC4C3CC(O)C3(C)C(C5=CC(=O)OC5)CCC43O)C2)CC(O)C1OC1CC(O)C(OC2CC3OC(=O)OC3C(C)O2)C(C)O1` (stereo not shown) [digoxin-3'",4'"-cyclic carbonate], under setting [1], the half-life is 0.15 min. As for `CC1OC(OC2CCC3(C)C(CCC4C3CC(OC(=O)CCCCCN(C)C)C3(C)C(C5=CC(=O)OC5)CCC43O)C2)CC(O)C1OC1CC(O)C(OC2CC3OC(=O)OC3C(C)O2)C(C)O1` (stereo not shown) [digoxin-12-[6-(N,N-dimethylamino)hexanoate]-3'",4'"-cyclic carbonate], the half-life under setting [1] is 36300 min. As to `CC(=O)O[C@H](CC(=O)NCCCCCC(=O)OCCc1ccc([N+](=O)[O-])cc1)C[N+](C)(C)C` [2-(4-Nitrophenyl)ethanol 6-(O-acetyl-L-carnitinamido)hexanoate ester, chloride salt], the half-life under setting [2] was 0.132 min, the half-life under setting [3] is 0.132 min and the half-life under setting [1] was 0.132 min. As for `CC(=O)OC1CC(C(=O)O[C@H]2[C@@H](O)C[C@H](O[C@H]3[C@@H](O)C[C@H](O[C@H]4[C@@H](O)C[C@H](O[C@H]5CC[C@@]6(C)[C@H](CC[C@@H]7[C@@H]6C[C@@H](O)[C@]6(C)[C@@H](C8=CC(=O)OC8)CC[C@]76O)C5)O[C@@H]4C)O[C@@H]3C)O[C@@H]2C)[N+](C)(C)C1` (stereo partly shown) [digoxin-4"'-[(O-acetyl)-betonicine ester], chloride salt], the half-life under setting [1] is 1.8 min. In the case of `C#CC[N+](C)(COC(=O)C(C)(C)C)C(C)Cc1ccccc1` (stereo not shown) [deprenyl-N-pivaloyloxymethyl, iodide salt], under setting [1], the half-life is 20 min. In the case of `COc1ccc2c(c1)c(CC(=O)COC(=O)OCC[N+](C)(C)C)c(C)n2C(=O)c1ccc(Cl)cc1` [indomethacin hydroxymethyl ketone choline iodide carbonate], the half-life under setting [1] was 1.08 min. Still for that read-out and setting: with `CN(Cc1cnc2nc(N)nc(N)c2n1)c1ccc(C(=O)N[C@@H](CCC(=O)OCOC(=O)CCC[N+](C)(C)C)C(=O)OCOC(=O)CCC[N+](C)(C)C)cc1` [methotrexate-bis-(4-trimethylammoniobutyroyloxymethyl ester), diiodide salt] the figure was 108 min; with `CCCCCCCCCCCC(=O)OCn1c(=O)c(F)cn(COC(=O)CCC[N+](C)(C)C)c1=O` [5-fluorouracil-1-(N-(4-trimethylammoniobutyroyloxymethyl)-3-(N-lauroxyoxymethyl), iodide salt], 192 min; with `C[C@]12CC[C@H](OC(=O)OCC[N+](C)(C)C)C[C@H]1CC[C@@H]1[C@@H]2CC[C@]2(C)[C@@H](C3=CC(=O)OC3)CC[C@]12O` [digitoxigenin-3-(O-choline chloride carbonate) ester], 13.6 min.

`CC(=O)O[C@H](CC(=O)O[C@H]1CC[C@H]2[C@@H]3CCc4cc(O)ccc4[C@H]3CC[C@]12C)C[N+](C)(C)C` [17β-estradiol-17β-(O-acetyl-L-carnitine) ester]: the half-life under setting [1] is 240 min. The same measure, in the same setting: the figure for `C[N+](C)(C)CCOC(=O)OC1N=C(c2ccccc2Cl)c2cc(Cl)ccc2NC1=O` (stereo not shown) [lorazepam-3-choline carbonate, chloride salt] is 132 min.
